Experiments:
spring wheat (TRZAS) = assay: Test 4 field trial, postemergence; conditions: clodinafop 56 or fenoxaprop 90 g a.i./ha alone
Protocol: (§1) A field trial was conducted to evaluate the effects of mixtures of Compound 2 with commercial herbicides on spring wheat (TRZAS, Triticum aestivum L.) and several weed species. Wheat seeds (cv. ‘AC Intrepid’) were planted in late spring season, 3.8 cm deep in a loam soil having 2.7% organic matter and a pH of 7. Plots were 6 m long by 2.5 m wide. The field was managed using no-till practices. The plots were arranged in a randomized complete block design with each treatment being replicated four times. Treatments were applied postemergence 25 days after planting using a backpack sprayer delivering a spray volume of 55 L/ha using a pressure of 276 kPa. […] Compound 2 and clodinafop treatments, alone and in combination, also included a surfactant. Weed species present in the experimental plots in sufficient quantity to be evaluated included wild oat (AVEFA, Avena fatua L.), common lambsquarters (CHEAL, Chenopodium album L.), kochia (KCHSC, Kochia scoparia (L.) Schrad.), wild buckwheat (POLCO, Polygonum convolvulus L.), Russian thistle (SASKR, Salsola kali L. ssp. ruthenica (Iljin) Soo), and field pennycress (THLAR, Thlaspi arvense L.). […] Common lambsquarters was evaluated only at 14 days after application. […] Results are the means of the four replicates.

wild buckwheat (POLCO) = assay: Test 4 field trial, postemergence; assay type: in vivo, Polygonum convolvulus; conditions: clodinafop 56 or fenoxaprop 90 g a.i./ha alone
Protocol: as §1

Russian thistle (SASKR) = assay: Test 4 field trial, postemergence; assay type: in vivo, Salsola kali; set-up: scale not given here; conditions: clodinafop 56 or fenoxaprop 90 g a.i./ha alone
Protocol: as §1

field pennycress (THLAR) = assay: Test 4 field trial, postemergence; assay type: in vivo, Thlaspi arvense; set-up: scale not given here; conditions: clodinafop 56 or fenoxaprop 90 g a.i./ha alone
Protocol: as §1

[1] = tested on: common lambsquarters (CHEAL); assay: Test 4 field trial, postemergence; assay type: in vivo, Chenopodium album; conditions: clodinafop 56 or fenoxaprop 90 g a.i./ha alone
wild oat (AVEFA) = assay: Test 4 field trial, postemergence; assay type: in vivo, Avena fatua; set-up: scale not given here; conditions: clodinafop 56 or fenoxaprop 90 g a.i./ha alone
Protocol: as §1

barnyardgrass (ECHCG) [2] = assay: Test 28 greenhouse, postemergence; assay type: in vivo, Echinochloa crus-galli; conditions: 26 DAA
Protocol: (§2) A greenhouse test was conducted to evaluate the effects on the plant species corn (ZEAMD, Zea mays ssp. indentata), sorghum (SORVU, Sorghum vulgare L.), dry-seeded rice (ORYSA, Oryza sativa L.), wheat (TRZAW, Triticum aestivum L.), ivyleaf morningglory (IPOHE, Ipomoea hederacea (L.) JACQ.), and barnyardgrass (ECHCG, Echinochloa crus-galli (L.) P. BEAUV.), of mixtures of Compound 2 with isoxadifen-ethyl. Corn, sorghum, rice, wheat, ivyleaf morningglory and barnyardgrass seeds were planted in RediEarth, a commercial potting medium. […] Corn plants were treated postemergence at the V2 growth stage, and sorghum, rice, wheat, ivyleaf morningglory, and barnyardgrass plants were treated postemergence at the 3-leaf stage. […] Each treatment was replicated three times. […] Plants were watered as needed.

[3] = tested on: smallflower umbrella sedge (CYPDI); assay: Test 32 greenhouse, simulated flooded rice culture; assay type: in vivo, Cyperus difformis; conditions: postemergence to flood, 21 DAA
Protocol: (§3) A greenhouse trial was conducted to evaluate the effects of Compound 1 and isoxadifen-ethyl at different ratios in simulated flooded rice culture. Plastic pots (11-cm diameter) were partially filled with non-sterilized Tama silt loam soil containing a 15:57:28 ratio of sand, silt and clay and 2.9% organic matter. Seeds of Heteranthera limosa (ducksalad; HETLI), Cyperus difformis (smallflower umbrella sedge; CYPDI), one stand of Echinochloa crus-galli (barnyardgrass; ECHCG), and one stand of four rice seedlings (Oryza sativa cv. ‘M202’; ORYSA) were planted into a single 11-cm diameter pot for each rate and mixture of rates. To obtain this planting, C. difformis and H. limosa seeds were planted separately on the surface soil layer at particular locations within each pot. Water levels were brought to a puddled condition above the soil surface directly after planting. E. crus-galli and rice seeds were planted in cavity trays in the silt loam soil and transplanted at the 1.5 and 2.0 leaf stage, respectively. E. crus-galli and rice plants were transplanted to about 2-cm depth by transferring plugs from the cavity trays. Plantings were sequential so that these plant species all reached the 2.0- to 2.5-leaf stage in the 11-cm diameter pot at time of treatment. Plantings were established and maintained in a greenhouse with day and night temperatures of about 29.5 and 26.7° C. respectively; supplemental balanced lighting was provided to maintain a 16-hour photoperiod. Pots were fertilized periodically with a 200 ppm solution of commercial Scotts Peters® Professional® General Purpose 20-20-20 Water Soluble Fertilizer, amended to 10 ppm with a commercial iron-chelate micronutrient fertilizer. The solution was supplied at time of watering via a liquid fertilizer injector.
(§4) At treatment time, test pots were flooded to 3 cm above the soil surface and maintained at that water depth for the duration of the test. Chemical treatments were formulated in acetone and applied directly to the paddy water (i.e., postemergence to flood). Make-up volumes of acetone were added to ensure that all pots were treated with a consistent volume. Test pots were maintained in the greenhouse. A randomized complete block design was employed. Five replicates of each treatment, alone and in mixture, were used. Each species was visually evaluated for treatment effects by comparing those treated to untreated controls and rated for plant response after 21 days.

rice (ORYSA) = assay: Test 32 greenhouse, simulated flooded rice culture; assay type: in vivo, Oryza sativa; conditions: postemergence to flood, 21 DAA
Protocol: as §3, §4

corn (ZEAMD) = assay: Test 28 greenhouse, post- and preemergence; assay type: in vivo, Zea mays ssp. indentata; conditions: 26 DAA
Protocol: as §2

barnyardgrass (ECHCG) [4] = assay: Test 32 greenhouse, simulated flooded rice culture; assay type: in vivo, Echinochloa crus-galli; set-up: scale not given here; conditions: postemergence to flood, 21 DAA
Protocol: as §3, §4

ducksalad (HETLI) = assay: Test 32 greenhouse, simulated flooded rice culture; assay type: in vivo, Heteranthera limosa; set-up: scale not given here; conditions: postemergence to flood, 21 DAA
Protocol: as §3, §4

wheat (TRZAW) = assay: Test 28 greenhouse, post- and preemergence; assay type: in vivo, Triticum aestivum; conditions: 26 DAA
Protocol: as §2

dry-seeded rice (ORYSA) = assay: Test 28 greenhouse, postemergence; assay type: in vivo, Oryza sativa; conditions: 26 DAA
Protocol: as §2

[5] = tested on: ivyleaf morningglory (IPOHE); assay: Test 28 greenhouse, postemergence; assay type: in vivo, Ipomoea hederacea; conditions: 26 DAA
Protocol: as §2

sorghum (SORVU) = assay: Test 28 greenhouse, postemergence; assay type: in vivo, Sorghum vulgare; conditions: 26 DAA
Protocol: as §2

[6] = Isoxadifen-ethyl 1024 g a.i./ha
[7] = Isoxadifen-ethyl 31.25 g a.i./ha
[8] = Isoxadifen-ethyl 62.5 g a.i./ha
[9] = Isoxadifen-ethyl 1000 g a.i./ha
[10] = Isoxadifen-ethyl 1500 g a.i./ha
[11] = postemergence, Isoxadifen-ethyl 64 g a.i./ha
[12] = postemergence, Isoxadifen-ethyl 128 g a.i./ha
[13] = postemergence, Isoxadifen-ethyl 256 g a.i./ha
[14] = postemergence, Isoxadifen-ethyl 512 g a.i./ha
[15] = postemergence, Isoxadifen-ethyl 1024 g a.i./ha
[16] = preemergence, Isoxadifen-ethyl 64 g a.i./ha
[17] = preemergence, Isoxadifen-ethyl 128 g a.i./ha
[18] = preemergence, Isoxadifen-ethyl 256 g a.i./ha
[19] = preemergence, Isoxadifen-ethyl 512 g a.i./ha
[20] = preemergence, Isoxadifen-ethyl 1024 g a.i./ha

`CC(Oc1ccc(Oc2nc3ccc(Cl)cc3o2)cc1)C(=O)O` (stereo not shown) [Fenoxaprop] was tested, and the “TRZAS Obs” value (spring wheat (TRZAS); 14 DAA) was 0, the “TRZAS Obs” value (spring wheat (TRZAS); 35 DAA) was 0 and the “TRZAS Obs” value (spring wheat (TRZAS); 55 DAA) was 0. For the same molecule, the “POLCO Obs” value (wild buckwheat (POLCO); 14 DAA) was 0, the “POLCO Obs” value (wild buckwheat (POLCO); 35 DAA) was 0 and the “SASKR Obs” value (Russian thistle (SASKR); 14 DAA) was 0. The “SASKR Obs” value (Russian thistle (SASKR); 35 DAA) was 0, the “THLAR Obs” value (field pennycress (THLAR); 14 DAA) was 0 and the “THLAR Obs” value (field pennycress (THLAR); 35 DAA) was 0. The “CHEAL Obs” value ([1]; 14 DAA) was 0, the “CHEAL Obs” value ([1]; 35 DAA) was 0 and the “AVEFA Obs” value (wild oat (AVEFA); 14 DAA) was 96. The “AVEFA Obs” value (wild oat (AVEFA); 35 DAA) was 96 and the “AVEFA Obs” value (wild oat (AVEFA); 55 DAA) was 98.
For `CCOC(=O)C1=NOC(c2ccccc2)(c2ccccc2)C1` [Isoxadifen-ethyl], the “ECHCG Obs” value (barnyardgrass (ECHCG) [2]; Isoxadifen-ethyl 64 g a.i./ha) was 0, the “ECHCG Obs” value (barnyardgrass (ECHCG) [2]; Isoxadifen-ethyl 128 g a.i./ha) was 0 and the “ECHCG Obs” value (barnyardgrass (ECHCG) [2]; Isoxadifen-ethyl 256 g a.i./ha) was 0. The “ECHCG Obs” value (barnyardgrass (ECHCG) [2]; Isoxadifen-ethyl 512 g a.i./ha) was 0, the “ECHCG Obs” value (barnyardgrass (ECHCG) [2]; [6]) was 0 and the “CYPDI Obs” value [3, 7] was 28. The “CYPDI Obs” value [3, 8] was 24, the “CYPDI Obs” value ([3]; Isoxadifen-ethyl 125 g a.i./ha) was 84 and the “CYPDI Obs” value ([3]; Isoxadifen-ethyl 250 g a.i./ha) was 59. For the same molecule, the “CYPDI Obs” value ([3]; Isoxadifen-ethyl 500 g a.i./ha) was 49, the “CYPDI Obs” value [3, 9] was 53 and the “CYPDI Obs” value [3, 10] was 59. For the same molecule, the ORYSA Obs (rice (ORYSA); [7]) was 2%, the ORYSA Obs (rice (ORYSA); [8]) was 5% and the ORYSA Obs (rice (ORYSA); Isoxadifen-ethyl 125 g a.i./ha) was 11%. For the same molecule, the ORYSA Obs (rice (ORYSA); Isoxadifen-ethyl 250 g a.i./ha) was 7%, the ORYSA Obs (rice (ORYSA); Isoxadifen-ethyl 500 g a.i./ha) was 5% and the ORYSA Obs (rice (ORYSA); [9]) was 5%. The ORYSA Obs (rice (ORYSA); [10]) was 10%, the “ZEAMD Obs” value (corn (ZEAMD); [11]) was 0 and the “ZEAMD Obs” value (corn (ZEAMD); [12]) was 0. The “ZEAMD Obs” value (corn (ZEAMD); [13]) was 0, the “ZEAMD Obs” value (corn (ZEAMD); [14]) was 0 and the “ZEAMD Obs” value (corn (ZEAMD); [15]) was 0. The “ZEAMD Obs” value (corn (ZEAMD); [16]) was 0, the “ZEAMD Obs” value (corn (ZEAMD); [17]) was 0 and the “ZEAMD Obs” value (corn (ZEAMD); [18]) was 0. The “ZEAMD Obs” value (corn (ZEAMD); [19]) was 0, the “ZEAMD Obs” value (corn (ZEAMD); [20]) was 0 and the “ECHCG Obs” value (barnyardgrass (ECHCG) [4]; [7]) was 4. For the same molecule, the “ECHCG Obs” value (barnyardgrass (ECHCG) [4]; [8]) was 9, the “ECHCG Obs” value (barnyardgrass (ECHCG) [4]; Isoxadifen-ethyl 125 g a.i./ha) was 15 and the “ECHCG Obs” value (barnyardgrass (ECHCG) [4]; Isoxadifen-ethyl 250 g a.i./ha) was 10. The “ECHCG Obs” value (barnyardgrass (ECHCG) [4]; Isoxadifen-ethyl 500 g a.i./ha) was 5, the “ECHCG Obs” value (barnyardgrass (ECHCG) [4]; [9]) was 8 and the “ECHCG Obs” value (barnyardgrass (ECHCG) [4]; [10]) was 9. For the same molecule, the “HETLI Obs” value (ducksalad (HETLI); [7]) was 10, the “HETLI Obs” value (ducksalad (HETLI); [8]) was 29 and the “HETLI Obs” value (ducksalad (HETLI); Isoxadifen-ethyl 125 g a.i./ha) was 35. For the same molecule, the “HETLI Obs” value (ducksalad (HETLI); Isoxadifen-ethyl 250 g a.i./ha) was 19, the “HETLI Obs” value (ducksalad (HETLI); Isoxadifen-ethyl 500 g a.i./ha) was 23 and the “HETLI Obs” value (ducksalad (HETLI); [9]) was 25. For the same molecule, the “HETLI Obs” value (ducksalad (HETLI); [10]) was 36, the TRZAW Obs (wheat (TRZAW); [11]) was 0% and the TRZAW Obs (wheat (TRZAW); [12]) was 0%. It also gave a TRZAW Obs (wheat (TRZAW); [13]) of 0%, a TRZAW Obs (wheat (TRZAW); [14]) of 0% and a TRZAW Obs (wheat (TRZAW); [15]) of 0%. The TRZAW Obs (wheat (TRZAW); [16]) was 0%, the TRZAW Obs (wheat (TRZAW); [17]) was 0% and the TRZAW Obs (wheat (TRZAW); [18]) was 0%. For the same molecule, the TRZAW Obs (wheat (TRZAW); [19]) was 0%, the TRZAW Obs (wheat (TRZAW); [20]) was 0% and the “ORYSA Obs” value (dry-seeded rice (ORYSA); Isoxadifen-ethyl 64 g a.i./ha) was 0. The “ORYSA Obs” value (dry-seeded rice (ORYSA); Isoxadifen-ethyl 128 g a.i./ha) was 0, the “ORYSA Obs” value (dry-seeded rice (ORYSA); Isoxadifen-ethyl 256 g a.i./ha) was 0 and the “ORYSA Obs” value (dry-seeded rice (ORYSA); Isoxadifen-ethyl 512 g a.i./ha) was 0. The “ORYSA Obs” value (dry-seeded rice (ORYSA); [6]) was 0, the “IPOHE Obs” value ([5]; Isoxadifen-ethyl 64 g a.i./ha) was 0 and the “IPOHE Obs” value ([5]; Isoxadifen-ethyl 128 g a.i./ha) was 0. The “IPOHE Obs” value ([5]; Isoxadifen-ethyl 256 g a.i./ha) was 0, the “IPOHE Obs” value ([5]; Isoxadifen-ethyl 512 g a.i./ha) was 0 and the “IPOHE Obs” value [5, 6] was 0. The SORVU Obs (sorghum (SORVU); Isoxadifen-ethyl 64 g a.i./ha) was 0%, the SORVU Obs (sorghum (SORVU); Isoxadifen-ethyl 128 g a.i./ha) was 0% and the SORVU Obs (sorghum (SORVU); Isoxadifen-ethyl 256 g a.i./ha) was 0%. For the same molecule, the SORVU Obs (sorghum (SORVU); Isoxadifen-ethyl 512 g a.i./ha) was 0% and the SORVU Obs (sorghum (SORVU); [6]) was 0%.
